Assays:
[1] = human, in vivo, po
Source text: (§1) The study is designed as an escalating single-dose, randomized, double-blind, placebo-controlled study in healthy adult male subjects.
(§2) The subjects will be monitored closely for safety and be tested using various pharmacodynamic measures during this phase. E.g. blood and urine samples will be collected for determination of the concentration of the active agent and its metabolites.
(§3) Pharmacokinetic samples will be analyzed after each cohort to examine the extent of drug exposure. Blood samples will be collected for determination of the active agent, its metabolites, and related substances at the following time-points: 0.25, 0.5, 1.0, 1.5, 2, 3, 4, 5, 6, 8, 10,12, 24, 30, 36, 48, 60, 72, 84 hr after dosing, and at End of Study. Up to 5 additional post-dosing blood sampling(s) may be performed and/or the timing of pharmacokinetic parameters draws may change if indicated after the analysis of blood samples from previous cohort(s). Samples will be collected after vital signs, pulse oximetry, and ECG are obtained.

clinical = details: male, human, in vivo
Source text: as §1, §2, §3

[2] = escalating single-dose, randomized, double blind, placebo-controlled pharmacokinetic study, oral suspension, healthy male subjects; details: human, plasma
Source text: as §1, §2, §3

COC[C@@]1(O)CC[C@]2(C)C3CC[C@@]4(C)C(CC[C@@H]4C(=O)Cn4ccnc4)C3CC[C@H]2C1 (stereo partly drawn) [3α-hydroxy-3β-methoxymethyl-21-(1′-imidazolyl)-5α-pregnan-20-one]
Cmax levels between subjects [1]: variable | Cmax values versus dose [1]: greater than dose-proportional | Tmax (clinical): 1.5 to 5 h | Cmax (clinical; 1 mg): 1 to 1.8 ng/mL | Cmax (clinical; 3 mg): 4 to 8 ng/mL | Cmax (clinical; 10 mg): 16.9 to 46.3 ng/mL | Cmax (clinical; 30 mg): 95.6 to 154 ng/mL | Cmax (clinical; 60 mg): 218 to 479 ng/mL | Tmax (clinical; po): 1 to 3 h | half-life (clinical; po): ~720 min | Cmax (clinical; po, 1 mg): 1.3 ng/mL | Tmax (clinical; po, 1 mg): 3.1 h | AUC(0-t) (clinical; po, 1 mg, AUC (0-24)): 16.9 ng·h/mL | AUC(0-t) (clinical; po, 1 mg, AUC (0-last)): 22.4 ng·h/mL | Cmax (clinical; po, 3 mg): 5.7 ng/mL | Tmax (clinical; po, 3 mg): 2.8 h | half-life (clinical; po, 3 mg): 528 min | AUC(0-t) (clinical; po, 3 mg, AUC (0-24)): 54.6 ng·h/mL | AUC(0-t) (clinical; po, 3 mg, AUC (0-last)): 65.6 ng·h/mL | Cmax (clinical; po, 10 mg): 26.5 ng/mL | Tmax (clinical; po, 10 mg): 1.7 h | AUC(0-t) (clinical; po, 10 mg, AUC (0-24)): 213 ng·h/mL | AUC(0-t) (clinical; po, 10 mg, AUC (0-last)): 254 ng·h/mL | Cmax (clinical; po, 30 mg): 120 ng/mL | Tmax (clinical; po, 30 mg): 2.1 h | AUC(0-t) (clinical; po, 30 mg, AUC (0-24)): 952 ng·h/mL | AUC(0-t) (clinical; po, 30 mg, AUC (0-last)): 1120 ng·h/mL | Cmax (clinical; po, 60 mg): 330 ng/mL | Tmax (clinical; po, 60 mg): 1.8 h | AUC(0-t) (clinical; po, 60 mg, AUC (0-24)): 2330 ng·h/mL | AUC(0-t) (clinical; po, 60 mg, AUC (0-last)): 2610 ng·h/mL | half-life ([2]; 1 mg): 828 min | half-life ([2]; 10 mg): 786 min | half-life ([2]; 30 mg): 786 min | half-life ([2]; 60 mg): 750 min
